Article PMC6151695, “Novel Selective Estrogen Receptor Ligand Conjugates Incorporating Endoxifen-Combretastatin and Cyclofenil-Combretastatin Hybrid Scaffolds: Synthesis and Biochemical Evaluation” (Molecules : A Journal of Synthetic Chemistry and Natural …, 2017)
Entries after “also recorded” stand apart in the source; their conditions may differ. Read-outs that look alike come from different tables or passages of the source.

Columns and labels:
[1] = system: MCF-7 human breast cancer cell line; assay: Alamar Blue assay for antiproliferative effects; format: cell-based; conditions: for IC50: Homo sapiens
[2] = biological target: T1, human ERα (Homo sapiens, UniProt P03372); assay: Estrogen receptor fluorescence polarisation competitive binding assay, ERα; conditions: for Selectivity (α/β): ratio of RBA values ERα relative to ERβ; for ERα RBA: relative binding affinity, estradiol (5.7 nM) = 100%
T1 construct: purchased Invitrogen
T1 sequence (P03372 1-595): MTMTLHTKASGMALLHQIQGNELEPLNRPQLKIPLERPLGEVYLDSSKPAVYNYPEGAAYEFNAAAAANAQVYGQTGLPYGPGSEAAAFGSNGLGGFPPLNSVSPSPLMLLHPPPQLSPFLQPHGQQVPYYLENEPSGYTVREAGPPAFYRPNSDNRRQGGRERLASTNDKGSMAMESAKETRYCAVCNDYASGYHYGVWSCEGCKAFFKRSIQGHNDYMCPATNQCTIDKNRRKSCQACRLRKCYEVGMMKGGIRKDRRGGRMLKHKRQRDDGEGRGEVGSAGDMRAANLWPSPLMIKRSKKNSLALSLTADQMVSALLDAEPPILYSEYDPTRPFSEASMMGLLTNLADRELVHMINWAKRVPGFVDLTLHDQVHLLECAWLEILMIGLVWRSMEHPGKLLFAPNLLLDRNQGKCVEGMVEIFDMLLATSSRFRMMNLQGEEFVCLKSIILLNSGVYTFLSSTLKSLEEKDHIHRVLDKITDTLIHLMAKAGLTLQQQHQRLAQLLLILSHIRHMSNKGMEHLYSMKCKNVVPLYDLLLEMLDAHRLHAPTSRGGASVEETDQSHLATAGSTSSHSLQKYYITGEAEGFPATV

[3] = biological target: T2, human ERβ (Homo sapiens, UniProt Q92731); assay: Estrogen receptor fluorescence polarisation competitive binding assay, ERβ
T2 construct: purchased Invitrogen

[4] = system: MCF-7 cells; assay: Flow cytometry (propidium iodide) cell cycle and apoptosis analysis in MCF-7; format: cell-based, human; conditions: for apoptosis (in words): MCF-7, 72 h; for apoptosis / G2/M-arrest: MCF-7, 10 µM, 72 h
Protocol: Flow cytometry with propidium iodide stained cells was carried out to analyse the percentage of cells in each stage of the cell cycle and the number of apoptotic or dead cells. Samples were treated for 72 h at 10 µM. […] […].
(§1) MCF-7 cells were seeded at a density of 5 × 10^4 cells/well in a 12-well plate and treated with the indicated compounds for 72 h. Samples were then centrifuged at 650× g for 5 min and resuspended in 100 µL ice-cold PBS. Ice-cold 70% (v/v) ethanol (1 mL) was then added to fix the samples overnight at 4 °C. Samples were subsequently centrifuged at 800× g for 10 min and resuspended in 200 µL PBS. RNase A (12.5 µL of 10 mg/mL) and propidium iodide (37.5 µL of 1 mg/ mL) were added to samples which were then incubated for 30 min at 37°C. Cell cycle analysis was performed at 488 nm using a FACS Calibur flow cytometer (Becton Dickinson, Franklin Lakes, NJ, USA). The Macintosh-based application CellQuest was then used to analyse the data of 10,000 gated cells once cell debris had been excluded. Data points represent the mean ± S.E.M. of three independent experiments.

[5] = system: peripheral blood mononuclear cells (PBMCs); assay: Flow cytometry (propidium iodide) in PBMCs of healthy donors; format: cell-based, human; conditions: 10 µM, 72 h
Protocol: Next, the same cohort of compounds was tested on peripheral blood mononuclear cells (PBMCs) isolated from the blood of healthy donors. Cells were treated with 10 µM of each compound for 72 h and subjected to flow cytometry.
as §1
Fresh peripheral blood was collected from healthy donors and diluted 1:3 with RPMI medium and added to half the equivalent volume of Lymphoprep. Samples were centrifuged at 750× g for 30 min to form a Ficoll gradient. The white buffy layer containing the peripheral blood mononuclear cells was removed, diluted to a volume of 50 mL with medium and centrifuged again for 10 min at 650× g. Cells were then seeded at a density of 1 × 10^6 cells in 1 mL of RPMI medium supplemented with 10% FBS, 2 mM L-glutamine and 100 U/mL penicillin and 100 µg/mL streptomycin.

[6] = system: MCF-7 cells; assay: Lactate dehydrogenase (LDH) assay for cytotoxicity
[7] = system: MCF-7 cells; conditions: human
[8] = in vitro; conditions: plasma
[9] = HPLC stability study in phosphate buffer
[10] = MCF7, 72 h, MCF-7, 72 h, Alamar Blue, read-out: IC50 (μM), antiproliferative effects
[11] = competitive binding, fluorescence polarisation, read-out: ERα IC50
[12] = competitive binding, fluorescence polarisation, read-out: ERβ IC50
[13] = MCF7, 72 h, read-out: IC50 (μM), antiproliferative effects

T2 sequence (Q92731 whole entry): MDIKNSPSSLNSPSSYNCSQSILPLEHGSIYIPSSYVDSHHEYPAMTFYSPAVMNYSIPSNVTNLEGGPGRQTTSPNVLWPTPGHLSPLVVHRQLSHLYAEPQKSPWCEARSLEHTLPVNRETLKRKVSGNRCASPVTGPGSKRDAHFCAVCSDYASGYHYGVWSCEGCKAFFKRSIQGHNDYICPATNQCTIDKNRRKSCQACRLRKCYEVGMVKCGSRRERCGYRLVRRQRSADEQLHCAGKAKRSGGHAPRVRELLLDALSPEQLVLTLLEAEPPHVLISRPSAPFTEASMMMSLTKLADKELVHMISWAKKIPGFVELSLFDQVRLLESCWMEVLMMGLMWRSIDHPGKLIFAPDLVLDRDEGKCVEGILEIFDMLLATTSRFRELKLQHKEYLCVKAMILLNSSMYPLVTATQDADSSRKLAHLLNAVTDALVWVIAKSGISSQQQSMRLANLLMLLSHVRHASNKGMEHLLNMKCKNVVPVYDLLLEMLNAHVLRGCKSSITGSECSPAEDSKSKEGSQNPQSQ

| Compound | IC50 [1, 10] | IC50 [2, 11] | Selectivity (α/β) [2] | ERα RBA [2] | IC50 [3, 12] | apoptosis (in words) [4] | apoptosis / toxic effects in PBMCs (in words) [5] | apoptosis [4] | other results |
| --- | --- | --- | --- | --- | --- | --- | --- | --- | --- |
| CCC(=C(c1ccc(O)cc1)c1ccc(OCCN(C)C(=O)/C(=C/c2cc(OC)c(OC)c(OC)c2)c2ccc(OC)c(O)c2)cc1)c1ccccc1 (mixture of isomers) [Compound 3i, (E/Z)-2-(3-Hydroxy-4-methoxyphenyl)-N-(2-(4-((Z)-1-(4-hydroxyphenyl)-2-phenylbut-1-en-1-yl)phenoxy)-ethyl)-N-methyl-3-(3,4,5-trimethoxyphenyl)acrylamide] | 4.2 µM | 182 nM | 2.44 | 3.13% | 436 nM | potently induce apoptosis | lack of toxicity | – | – |
| COc1ccc(/C=C\c2cc(OC)c(OC)c(OC)c2)cc1O [CA4, Combretastatin A-4, reference compound] | 0.008 µM | – | – | – | – | – | – | – | cytotoxicity (LDH assay) [6]: 13% |
| CNCCOc1ccc(C(=C2CCCCCC2)c2ccc(O)cc2)cc1 [Compound 11c, 4-(Cycloheptylidene(4-(2-(methylamino)ethoxy)phenyl)methyl)phenol] | 1.38 µM | 1740 nM | 0.12 | 0.328% | 199 nM | potently induce apoptosis | induced apoptosis in PBMCs | 79.7 ± 5.2% | – |
| CNCCOc1ccc(C(=C2CCCCCCC2)c2ccc(O)cc2)cc1 [Compound 11d, 4-(Cyclooctylidene(4-(2-(methylamino)ethoxy)phenyl)methyl)phenol] | 3.23 µM | 170 nM | 0.67 | 3.35% | 112 nM | – | – | – | – |
| CNCCOc1ccc(C(=C2CCC(C)CC2)c2ccc(O)cc2)cc1 (stereo not shown) [Compound 11e, 4-((4-(2-(Methylamino)ethoxy)phenyl)(4-methylcyclohexaneylidene)methyl)phenol] | 1.77 µM | 3160 nM | 0.02 | 0.180% | 67 nM | potently induce apoptosis | induced apoptosis in PBMCs | 76% | – |
| COc1ccc(/C=C(/C(=O)N(C)CCOc2ccc(C(=C3CCCC3)c3ccc(O)cc3)cc2)c2cc(OC)c(OC)c(OC)c2)cc1O [Compound 13a, (E)-N-(2-(4-(Cyclopentylidene(4-hydroxyphenyl)methyl)phenoxy)ethyl)-3-(3-hydroxy-4-methoxyphenyl)-N-methyl-2-(3,4,5-trimethoxyphenyl)acrylamide] | – | – | – | – | – | – | – | – | IC50 [1, 13]: 1.38 µM |
| COc1ccc(/C=C(/C(=O)N(C)CCOc2ccc(C(=C3CCCCC3)c3ccc(O)cc3)cc2)c2cc(OC)c(OC)c(OC)c2)cc1O [Compound 13b, (E)-N-(2-(4-(Cyclohexaneylidene(4-hydroxyphenyl)methyl)phenoxy)ethyl)-3-(3-hydroxy-4-methoxyphenyl)-N-methyl-2-(3,4,5-trimethoxyphenyl)acrylamide] | 2.01 µM | – | – | – | – | – | – | – | – |
| COc1ccc(/C=C(/C(=O)N(C)CCOc2ccc(C(=C3CCCCCC3)c3ccc(O)cc3)cc2)c2cc(OC)c(OC)c(OC)c2)cc1O [Compound 13c, (E)-N-(2-(4-(Cycloheptylidene(4-hydroxyphenyl)methyl)phenoxy)ethyl)-3-(3-hydroxy-4-methoxyphenyl)-N-methyl-2-(3,4,5-trimethoxyphenyl)acrylamide] | 2.5 µM | – | – | – | – | – | – | 20% | – |
| COc1ccc(/C=C(/C(=O)N(C)CCOc2ccc(C(=C3CCCCCCC3)c3ccc(O)cc3)cc2)c2cc(OC)c(OC)c(OC)c2)cc1O [Compound 13d, (E)-N-(2-(4-(Cyclooctylidene(4-hydroxyphenyl)methyl)phenoxy)ethyl)-3-(3-hydroxy-4-methoxyphenyl)-N-methyl-2-(3,4,5-trimethoxyphenyl)acrylamide] | – | – | – | – | – | potently induce apoptosis | lack of toxicity | 36% | IC50 [1, 13]: 0.346 µM; G2/M-arrest [4]: 27% |
| COc1ccc(/C=C(/C(=O)N(C)CCOc2ccc(C(=C3CCC(C)CC3)c3ccc(O)cc3)cc2)c2cc(OC)c(OC)c(OC)c2)cc1O (stereo not shown) [Compound 13e, (E)-3-(3-Hydroxy-4-methoxyphenyl)-N-(2-(4-((4-hydroxyphenyl)(4-methylcyclohexaneylidene)methyl)-phenoxy)ethyl)-N-methyl-2-(3,4,5-trimethoxyphenyl) acrylamide] | – | – | 12.3 | 30% | – | potently induce apoptosis | lack of toxicity | 48% | IC50 [1, 13]: 0.182 µM; IC50 ([1]; MCF7, read-out: IC50, antiproliferative activity): 0.187 µM; IC50 [2]: 19 nM; selectivity towards ERα over ERβ ([2]; binding affinity preference): 12 fold; IC50 [3]: 229 nM; G2/M-arrest [4]: 18% |
| CCC(=C(c1ccccc1)c1ccc(OCCN(C)C(=O)CCC(=O)O)cc1)c1ccccc1 [Compound 14a, N-{2-[4-(1,2-Diphenylbut-1-enyl)phenoxy]ethyl}-N-methylsuccinamic acid] | > 50 µM | – | – | – | – | – | – | – | antiproliferative activity (in words) ([1]; MCF-7): very low antiproliferative activity; also recorded: no significant antiproliferative activity |
| CC/C(=C(\c1ccc(O)cc1)c1ccc(OCCN(C)C(=O)CCC(=O)Oc2cc(/C=C\c3cc(OC)c(OC)c(OC)c3)ccc2OC)cc1)c1ccccc1 [Compound 16b, N-(2-{4-[(Z)-1-(4-Hydroxyphenyl)-2-phenylbut-1-enyl]phenoxy}ethyl)-N-methyl succinamic acid 2-methoxy-5-[(Z)-2-(3,4,5-trimethoxyphenyl)vinyl]phenyl ester] | – | – | – | – | – | – | – | – | IC50 [1, 13]: 0.0057 µM; cytotoxicity (LDH assay) [7]: 4.1%; remained intact in plasma at 12 h: 77%; half-life [8]: > 48 h; remained at 12 h ([9]; pH range 4–9, 12 h): > 90% |
| CC/C(=C(\c1ccccc1)c1ccc(OCCN(C)C(=O)CCC(=O)Oc2cc(/C=C(/C(=O)OC)c3cc(OC)c(OC)c(OC)c3)ccc2OC)cc1)c1ccccc1 [Compound 16c, N-{2-[4-((Z)-1,2-Diphenylbut-1-enyl)phenoxy]ethyl}-N-methylsuccinamic acid 2-methoxy-5-[(E)-2-methoxycarbonyl-2-(3,4,5-trimethoxyphenyl)vinyl]phenyl ester] | – | 70.9 nM | 1.29 | 8.04% | 90.1 nM | – | – | – | half-life at 14.6 µg/mL ([9]; half-life, pH range 4–9): > 20 h |
| CC/C(=C(\c1ccc(O)cc1)c1ccc(OCCNC)cc1)c1ccccc1 [Endoxifen] | 0.029 µM | 47 nM | 2.55 | 12.1% | 118 nM | – | – | – | cytotoxicity (LDH assay) [6]: 23% |
| N-(2-{4-[1,2-Bis-(4-hydroxyphenyl)but-1-enyl]phenoxy}ethyl)-N-methylsuccinamic acid [Compound 14c] | – | 11.3 nM | 0.60 | 50.44% | 6.7 nM | – | – | – | increase in binding affinity compared to 4-hydroxytamoxifen ([2]; in both ER isoforms): approximately 3 fold |
